# How the values were obtained:
# [1] = biological target: T1, Recombinant human liver GK1 (GST-GK) (Homo sapiens, UniProt P35557); test: In vitro glucokinase activity (G6PDH-coupled NADH assay); assay type: biochemical; details: 30° C., 5 mM D-glucose, 10% DMSO
# T1 construct: made in house; host or cells: E. coli
# T1 sequence (P35557 1-466 isoform P35557-2): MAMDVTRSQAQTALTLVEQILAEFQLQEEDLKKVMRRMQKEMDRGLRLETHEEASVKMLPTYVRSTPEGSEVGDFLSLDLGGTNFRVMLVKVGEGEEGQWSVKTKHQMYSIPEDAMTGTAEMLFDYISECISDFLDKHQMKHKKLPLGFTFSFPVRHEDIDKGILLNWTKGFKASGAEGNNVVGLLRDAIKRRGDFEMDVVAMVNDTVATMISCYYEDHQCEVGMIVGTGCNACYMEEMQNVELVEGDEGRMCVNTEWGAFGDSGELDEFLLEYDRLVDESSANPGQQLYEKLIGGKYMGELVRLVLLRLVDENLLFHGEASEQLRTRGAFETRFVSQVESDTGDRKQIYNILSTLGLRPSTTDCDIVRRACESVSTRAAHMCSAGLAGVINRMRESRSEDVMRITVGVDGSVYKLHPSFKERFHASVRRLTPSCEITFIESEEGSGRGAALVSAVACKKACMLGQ
# Procedure, shortened: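 GST-tagged human liver GK1 from E. coli, assayed at 30° C in 25 mM Hepes pH 7.1 with 5 mM D-glucose, 1 mM ATP, 1.8 mM NAD and G6PDH coupling, 10% DMSO final; reaction started with enzyme after 10 min preincubation. NADH formation followed at OD340; SC1.5 is activator concentration giving 50% increase over DMSO control rate.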
# C57B6 mice = test: Glucokinase activator in vivo screen: blood glucose lowering in mice after oral dosing; details: Mus musculus, vs control, read-out: % gluc lowering @ 4 H; for change in vivo at 25 mg/kg: 4 h post 25 mg/kg oral dose; for change in vivo at 30 mg/kg: 4 h post 30 mg/kg oral dose
# Protocol: Glucokinase Activator in vivo Screen Protocol in Lean and Diet Induced Obese Mice: Lean or Diet-Induced Obese (DIO) C57BL/6J mice were orally dosed via gavage with Glucokinase (GK) activator following a two hour fasting period. Blood glucose determinations were made at various (e.g. 0, 1, 2, 4 and 8 h post-oral gavage) times during the study.
# C57Bl/6J mice were obtained from Jackson Laboratory (Bar Harbor, Me.) and were maintained in a light-dark cycle with lights on from 0600-1800 hr. For studies in lean mice, the mice were received at age ten weeks and given ad libitum access to control diet (LabDiet 5001 chow, PMI Nutrition, Brentwood, Mo.), and were at least age 11 weeks at the time of study. For studies in the DIO model, the mice were received at age five weeks and given ad libitum access to Bio-Serv F3282 High Fat Diet (Frenchtown, N.J.), and were at least age 16 weeks at the time of study. The experiments were conducted during the light phase of the light-dark cycle. Mice (n=6) are weighed and fasted for a two hour period prior to oral treatment. GK activators are formulated in Gelucire vehicle (Ethanol:Gelucire44/14:PEG400q.s. 4:66:30 v/w/v. For studies in lean mice, the mice were dosed orally with 5.0 μL per gram of body weight (i.e. 5 ml/kg×10.0 mg/ml formulation to equal a 50 mg/kg dose). For studies in DIO mice, the mice were dosed orally with 5.0 μL per gram of body weight (i.e. 5.0 ml/kg×5 mg/ml formulation to equal a 25 mg/kg dose). Immediately prior to dosing, a pre-dose (time zero) blood glucose reading was acquired by snipping off a small portion of the animal's tail and collecting 15 μL blood into a heparinized capillary tube for analysis. Following GK activator administration, additional blood glucose readings were taken at various time points post dose from the same tail wound. Results were interpreted by comparing the mean blood glucose values of vehicle treated mice with GK activator treated mice over the study period.
# The Table below provides data for % glucose lowering of a representative number of compounds of the present invention vs control at 4 h post 25 or 30 mg/kg dose in C57B6 mice: […]
Compound,SC1.5 (concentration of activator that produced a 50% increase in the activity of GK) [1] [µM],change in vivo at 25 mg/kg (C57B6 mice) [%],change in vivo at 30 mg/kg (C57B6 mice) [%]
"CC(C)(O)Cn1ccc(NC(=O)[C@H](CC2CCCC2)N2CC(OC3CCCC3)=CC2=O)n1 [Example 16, (S)-3-Cyclopentyl-N-[1-(2-hydroxy-2-methyl-propyl)-1H-pyrazol-3-yl]-2-(4-cyclopentyloxy-2-oxo-2,5-dihydro-pyrrol-1-yl)-propionamide]",0.649,-36,
"CC(C)(O)Cn1ccc(NC(=O)[C@H](CC2CCCC2)N2CC(OC3CCCCC3)=CC2=O)n1 [Example 17, (S)-3-Cyclopentyl-N-[1-(2-hydroxy-2-methyl-propyl)-1H-pyrazol-3-yl]-2-(4-cyclohexyloxy-2-oxo-2,5-dihydro-pyrrol-1-yl)-propionamide]",0.366,-35.8,
"CC(C)(O)Cn1ccc(NC(=O)[C@H](CC2CCCC2)N2CC(OC3CCOCC3)=CC2=O)n1 [Example 18, (S)-3-Cyclopentyl-N-[1-(2-hydroxy-2-methyl-propyl)-1H-pyrazol-3-yl]-2-[2-oxo-4-(tetrahydro-pyran-4-yloxy)-2,5-dihydro-pyrrol-1-yl]-propionamide]",3.982,-10,
"CC(C)(O)Cn1ccc(NC(=O)[C@H](CC2CCCC2)N2CC(OC3CCC3)=CC2=O)n1 [Example 19, (S)-3-Cyclopentyl-N-[1-(2-hydroxy-2-methyl-propyl)-1H-pyrazol-3-yl]-2-(4-cyclobutoxy-2-oxo-2,5-dihydro-pyrrol-1-yl)-propionamide]",1.991,-29.5,
"COC(C)(C)Cn1ccc(NC(=O)[C@H](CC2CCCC2)N2CC(OC3CCCC3)=CC2=O)n1 [Example 21, (S)-3-Cyclopentyl-N-[1-(2-methoxy-2-methyl-propyl)-1H-pyrazol-3-yl]-2-(4-cyclopentyloxy-2-oxo-2,5-dihydro-pyrrol-1-yl)-propionamide]",0.545,-26.5,
"COc1ccccc1OC1=CC(=O)N([C@@H](CC2CCCC2)C(=O)Nc2nccs2)C1 [Example 26, (S)-3-Cyclopentyl-2-[4-(2-methoxy-phenoxy)-2-oxo-2,5-dihydro-pyrrol-1-yl]-N-thiazol-2-yl-propionamide]",0.031,-36.9,
"COc1ccccc1OC1=CC(=O)N([C@@H](CC2CCCC2)C(=O)Nc2ccn(CC(C)(C)O)n2)C1 [Example 27, (S)-3-Cyclopentyl-N-[1-(2-hydroxy-2-methyl-propyl)-1H-pyrazol-3-yl]-2-[4-(2-methoxy-phenoxy)-2-oxo-2,5-dihydro-pyrrol-1-yl]-propionamide]",0.029,,-52.2
"COc1ccccc1OC1=CC(=O)N([C@@H](CC2CCCCC2)C(=O)Nc2ccn(CC(C)(C)O)n2)C1 [Example 28, (S)-3-Cyclohexyl-N-[1-(2-hydroxy-2-methyl-propyl)-1H-pyrazol-3-yl]-2-[4-(2-methoxy-phenoxy)-2-oxo-2,5-dihydro-pyrrol-1-yl]-propionamide]",0.013,-45.4,
"COc1ccccc1OC1=CC(=O)N([C@@H](CC2CCCO2)C(=O)Nc2ccn(CC(C)(C)O)n2)C1 (stereo partly drawn) [Example 31, (S)-N-[1-(2-hydroxy-2-methyl-propyl)-1H-pyrazol-3-yl]-2-[4-(2-methoxy-phenoxy)-2-oxo-2,5-dihydro-pyrrol-1-yl]-3-(tetrahydro-furan-2-yl)-propionamide]",0.348,-31.6,
"CC(C)(O)Cn1ccc(NC(=O)[C@H](CC2CCCCC2)N2CC(Oc3ccccc3C(F)(F)F)=CC2=O)n1 [Example 32, (S)-3-Cyclohexyl-N-[1-(2-hydroxy-2-methyl-propyl)-1H-pyrazol-3-yl]-2-[2-oxo-4-(2-trifluoromethyl-phenoxy)-2,5-dihydro-pyrrol-1-yl]-propionamide]",0.025,-37.5,
"CC(C)(O)Cn1ccc(NC(=O)[C@H](CC2CCOCC2)N2CC(Oc3c(F)cccc3F)=CC2=O)n1 [Example 43, (S)-2-[4-(2,6-Difluoro-phenoxy)-2-oxo-2,5-dihydro-pyrrol-1-yl]-N-[1-(2-hydroxy-2-methylpropyl)-1H-pyrazol-3-yl]-3-(tetrahydro-pyran-4-yl)-propionamide]",0.058,,-38.1
"CC(C)C[C@@H](C(=O)Nc1ccn(C[C@@H](O)CO)n1)N1CC(Oc2c(F)cccc2F)=CC1=O [Example 47, (S)-2-[4-(2,6-difluoro-phenoxy)-2-oxo-2,5-dihydro-pyrrol-1-yl]-4-methyl-pentanoic acid [1-((R)-2,3-dihydroxy-propyl)-1H-pyrazol-3-yl]-amide]",0.257,,-33.2
"CCOc1ccc(F)c(OC2=CC(=O)N([C@@H](CC(C)C)C(=O)Nc3ccn(CC(C)(C)O)n3)C2)c1F [Example 260, (S)-2-[4-(3-Ethoxy-2,6-difluoro-phenoxy)-2-oxo-2,5-dihydro-pyrrol-1-yl]-4-methyl-pentanoic acid [1-(2-hydroxy-2-methyl-propyl)-1H-pyrazol-3-yl]-amide]",0.024,,
"CC(C)(O)Cn1ccc(NC(=O)C(CC2CCOCC2)N2CC(Oc3ccccc3Br)=CC2=O)n1 (stereo not shown) [Example 261, 2-[4-(2-Bromo-phenoxy)-2-oxo-2,5-dihydro-pyrrol-1-yl]-N-[1-(2-hydroxy-2-methyl-propyl)-1H-pyrazol-3-yl]-3-(tetrahydro-pyran-4-yl)-propionamide]",0.073,,
"CC(C)(O)Cn1ccc(NC(=O)[C@H](C[C@@H]2CCCCO2)N2CC(Oc3c(F)cccc3F)=CC2=O)n1 [Example 262, (S)-2-[4-(2,6-Difluoro-phenoxy)-2-oxo-2,5-dihydro-pyrrol-1-yl]-N-[1-(2-hydroxy-2-methyl-propyl)-1H-pyrazol-3-yl]-3-tetrahydro-pyran-2-yl-propionamide]",0.33,,
"O=C(Nc1ccn(C[C@@H](O)CO)n1)C(CC1C[C@@H](F)[C@@H](F)C1)N1CC(Oc2ccccc2Cl)=CC1=O (stereo partly drawn) [Example 263, 2-[4-(2-Chloro-phenoxy)-2-oxo-2,5-dihydro-pyrrol-1-yl]-3-((1R,3S,4R)-3,4-difluoro-cyclopentyl)-N-[1-((R)-2,3-dihydroxy-propyl)-1H-pyrazol-3-yl]-propionamide]",0.09,,

# — patent US7741327B2 (Hoffmann-La Roche Inc., priority 2008, dated 2010)
